Assay results as given in paper PMC11125018 (Pharmaceuticals, 2024).
pEC50, pIC50: −log10 of the molar value. “And” between values parts separate entries of the source, which are not always exact repeats. Equal entries are not always repeated. Where two headings read alike, the source gives them in different places.

What was measured:
[1] = target: T1, CB1 receptor (Homo sapiens, UniProt P21554); assay: PathHunter β-arrestin recruitment assay, agonist mode, CB1 expressing CHO-K1 cell line; format: cell-based; details: for Hill Slope: four-parameter log-logistic fit, three measurements; for Hill Slope / Maximum RE (%): parentheses = SD; for Maximum RE (%): 100% normalized to maximum (±)-CP 55,940 stimulation, 0% to vehicle; for agonist property: tested up to 5 µM; for EC50: EC50 (nM), agonist effect, 90 min incubation, parentheses = SD of three independent measurements; for classification as partial agonist of the CB1 cannabinoid receptor: relative to full agonist CP 55940
T1 construct: host or cells: CHO-K1
Method: (§1) For agonist and antagonist assays, PathHunter® CHO-K1 CNR1 (Eurofins DiscoverX, Fremont, CA, USA, Catalog number: 93-0959C2) β-Arrestin cells were expanded from freezer stocks according to standard procedures provided by Eurofins. The cell line manual was followed for cell growth (including cell culture media and supplementation, the handling and preparation of cells, etc.), test procedure, and signal detection. Cells were seeded in a total volume of 20 µL (5000 cells) into white-walled, 384-well microplates and incubated at 37 °C overnight prior to testing. After preparing stock acetonitrile solution at 1 mg/mL concentration of ligand, compound intermediate concentrations were achieved by a 10-point series of 3-fold compound serial dilutions in a compound dilution buffer in a separate dilution plate.
For the agonist assay, the concentration of each dilution was prepared at 5X of the final screening concentration. An amount of 5 µL of samples was added to cells (highest final concentration = 5 µM, maximum acetonitrile = 0.2 v/v%) and incubated at 37 °C for 90 min (5% CO2). To generate the assay signal, 12.5 µL of working detection solution was added to the cells, which were then left to incubate for an hour at room temperature in the dark. The signal detection was carried out using a PerkinElmer Envision instrument to measure chemiluminescence.

[2] = target: T1, CB1 receptor; assay: cell-based; format: cell-based; details: for IC50: IC50 (nM); for Hill Slope / Maximum RE (%): antagonist mode, parentheses = SD; for Hill Slope: four-parameter log-logistic fit, three measurements; for Maximum RE (%): 100% normalized to maximum AM-281, 0% to vehicle
Method: as §1
For antagonist determination, cells were pre-incubated with THCV isomers, followed by agonist challenge at the EC80 concentration. Each THCV dilution was prepared at a 10X concentration relative to the intended final concentrations for screening. An amount of 2.5 µL of these samples were introduced into the cells, achieving a maximum final concentration of 5 µM for THCV and ~0.2 v/v% for acetonitrile. The assay plate was incubated at 37 °C for 30 min in an atmosphere containing 5% CO2. […] Cells were incubated for 90 min at 37 °C and 5% CO2. To generate the assay signal, 12.5 µL of working detection solution was added to the cells, which were then left to incubate for an hour at room temperature in the dark. The signal detection was carried out using a PerkinElmer Envision (Waltham, MA, USA) instrument to measure chemiluminescence.

[3] = tested on: CB2 receptor; details: in vitro studies; cited from earlier work
[4] = tested on: CB1; details: cAMP assay, cited from earlier work; for pEC50: read-out: agonist EC50

T1 sequence (P21554 whole entry): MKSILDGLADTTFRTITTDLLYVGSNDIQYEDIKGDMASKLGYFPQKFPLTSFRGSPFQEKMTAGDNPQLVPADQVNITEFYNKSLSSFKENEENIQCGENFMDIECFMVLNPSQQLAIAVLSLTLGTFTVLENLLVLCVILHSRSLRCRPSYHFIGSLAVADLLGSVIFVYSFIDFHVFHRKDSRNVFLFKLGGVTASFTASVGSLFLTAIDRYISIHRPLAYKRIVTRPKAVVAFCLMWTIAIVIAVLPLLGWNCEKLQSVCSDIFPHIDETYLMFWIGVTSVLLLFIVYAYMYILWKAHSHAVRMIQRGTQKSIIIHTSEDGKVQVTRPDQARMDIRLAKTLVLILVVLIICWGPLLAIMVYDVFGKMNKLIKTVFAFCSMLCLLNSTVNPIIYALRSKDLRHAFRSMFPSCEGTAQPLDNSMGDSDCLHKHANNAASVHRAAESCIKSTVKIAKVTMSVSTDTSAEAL

Question: Which results are given for `CCCCCCC(C)(C)c1ccc([C@@H]2C[C@H](O)CC[C@H]2CCCO)c(O)c1` [CP 55940, reference compound]?
Answer: Hill Slope ([1]; agonist mode): 0.90 (0.10); Maximum RE (%) ([1]; agonist mode): 105.50 (3.34) %

Question: For `CCCc1cc(O)c2c(c1)OC(C)(C)[C@@H]1CCC(C)=C[C@@H]21` [∆9-THCV, tetrahydrocannabivarin], which “fold less potent antagonist than AM-281” value [2] is on record?
Answer: ~ 3 ×

Question: And the “fold less potent antagonist than rimonabant” value [2]?
Answer: ~ 45 ×

Question: What about the IC50 [2] of the same compound?
Answer: 52.4 nM

Question: And the “Hill Slope” value [2]?
Answer: 1.38 (0.18)

Question: And the “Maximum RE (%)” value [2]?
Answer: 96.46 (2.20) %

Question: What about the Emax ([1]; CHO-K1, agonist mode, up to 5 µM, insignificant increase from baseline) of the same compound?
Answer: 1.19%

Question: What about the agonist property ([1]; agonist mode) of the same compound?
Answer: failed to show any significant agonist property

Question: Which results are given for `CCCCCc1cc(O)c2c(c1)OC(C)(C)[C@@H]1CC[C@@H](C)C[C@@H]21` [9R-HHC, hexahydrocannabinol]?
Answer: EC50 [1]: 53.4 nM and 53.5 nM; Hill Slope ([1]; agonist mode): 0.56 (0.07); Maximum RE (%) ([1]; agonist mode): 41.51% and 41.51 (1.70) %; classification as partial agonist of the CB1 cannabinoid receptor [1]: moderate; CB2 selectivity [3]: 1.2 times; fold higher agonist potency than 9S-HHC [4]: approximately 16 fold; pEC50 [4]: 8.47

Question: What does the source list for `Cc1c(C(=O)NN2CCOCC2)nn(-c2ccc(Cl)cc2Cl)c1-c1ccc(I)cc1` [AM-281, reference compound]?
Answer: Hill Slope [2]: 0.81 (0.07); Maximum RE (%) [2]: 101.90 (1.63) %; pIC50 ([2]; read-out: IC50): 7.75

Question: Which IC50 [2] does the source give for `CCCc1cc(O)c2c(c1)OC(C)(C)[C@@H]1CC=C(C)C[C@@H]21` [∆8-THCV, tetrahydrocannabivarin] here?
Answer: 120 nM

Question: What about the “Hill Slope” value [2] of the same compound?
Answer: 1.37 (0.09)

Question: And the “Maximum RE (%)” value [2]?
Answer: 97.40 (1.16) %

Question: And the agonist property ([1]; agonist mode)?
Answer: failed to show any significant agonist property

Question: What does the source list for `CCCCCc1cc(O)c2c(c1)OC(C)(C)[C@@H]1CC[C@H](C)C[C@@H]21` [9S-HHC, hexahydrocannabinol]?
Answer: EC50 [1]: 624 nM; Hill Slope ([1]; agonist mode): 0.95 (0.08); Maximum RE (%) ([1]; agonist mode): 20.58% and 20.58 (0.80) %; classification as partial agonist of the CB1 cannabinoid receptor [1]: weak; CB2 selectivity [3]: 1.7 times; pEC50 [4]: 7.24
